Source: the NIST ThermoML archive (doi:10.1016/j.fluid.2007.01.001)
Numbers after ± are expanded uncertainties.

Experiments:
[1] = 101 kPa, Liquid; for viscosity: Capillary tube (Ostwald / Ubbelohde) method; for speed of sound: Frequency=2 MHz, Linear variable-path acoustic interferometer; for mass density: Pycnometric method
[2] = xn = mol fraction of the nth substance listed; settings: 101 kPa, Liquid, x1 = 1; for viscosity: Capillary tube (Ostwald / Ubbelohde) method; for speed of sound: Frequency=2 MHz, Linear variable-path acoustic interferometer; for mass density: Pycnometric method

SMILES	viscosity ([1]; 298.15 K)	speed of sound ([1]; 298.15 K)	mass density ([1]; 298.15 K)	viscosity ([1]; 308.15 K)	speed of sound ([1]; 308.15 K)	mass density ([1]; 308.15 K)	viscosity ([2]; 298.15 K)	speed of sound ([2]; 298.15 K)	mass density ([2]; 298.15 K)	viscosity ([2]; 308.15 K)	speed of sound ([2]; 308.15 K)	mass density ([2]; 308.15 K)
CCCCCCC(C)O (configuration not stated) [2-octanol]	6.429 ± 0.52 mPa·s	1328 ± 3 m/s	817.08 ± 0.58 kg/m3	4.365 ± 0.35 mPa·s	1292 ± 3 m/s	809.89 ± 0.6 kg/m3						
CCCCC(C)O (configuration not stated) [2-hexanol]	4.105 ± 0.33 mPa·s	1290 ± 3 m/s	810.84 ± 0.7 kg/m3	2.92 ± 0.23 mPa·s	1255 ± 3 m/s	801.75 ± 0.71 kg/m3						
Cc1ccccc1 [toluene] + CCCCC(C)O							0.554 ± 0.044 mPa·s	1306 ± 3 m/s	862.18 ± 0.73 kg/m3	0.496 ± 0.04 mPa·s	1270 ± 3 m/s	852.79 ± 0.74 kg/m3
CCCCCC(C)O (configuration not stated) [2-heptanol]	5.088 ± 0.41 mPa·s	1314 ± 3 m/s	813.74 ± 0.69 kg/m3	3.683 ± 0.3 mPa·s	1274 ± 3 m/s	804.88 ± 0.7 kg/m3						
Cc1ccccc1 [toluene] + CCCCCCC(C)O							0.554 ± 0.044 mPa·s	1306 ± 3 m/s	862.18 ± 0.73 kg/m3	0.496 ± 0.04 mPa·s	1270 ± 3 m/s	852.79 ± 0.74 kg/m3
Cc1ccccc1 [toluene]	0.554 ± 0.044 mPa·s	1306 ± 3 m/s	862.18 ± 0.73 kg/m3	0.496 ± 0.04 mPa·s	1270 ± 3 m/s	852.79 ± 0.74 kg/m3						
Cc1ccccc1 [toluene] + CCCCCC(C)O							0.554 ± 0.044 mPa·s	1306 ± 3 m/s	862.18 ± 0.73 kg/m3	0.496 ± 0.04 mPa·s	1270 ± 3 m/s	852.79 ± 0.74 kg/m3
